Consider 1 compound from ChEMBL document CHEMBL5055679, “Discovery of a Novel Androgen Receptor Antagonist Manifesting Evidence to Disrupt the Dimerization of the Ligand-Binding Domain via Attenuating the Hydrogen-Bonding Network Between the Two Monomers” (J Med Chem, 2021).

Activity calls are given as the source filed them. No cut-off for these calls is given here.

For data set [1], the target named is T1, Progesterone receptor (Homo sapiens) (UniProt P06401).
T1 sequence (whole entry): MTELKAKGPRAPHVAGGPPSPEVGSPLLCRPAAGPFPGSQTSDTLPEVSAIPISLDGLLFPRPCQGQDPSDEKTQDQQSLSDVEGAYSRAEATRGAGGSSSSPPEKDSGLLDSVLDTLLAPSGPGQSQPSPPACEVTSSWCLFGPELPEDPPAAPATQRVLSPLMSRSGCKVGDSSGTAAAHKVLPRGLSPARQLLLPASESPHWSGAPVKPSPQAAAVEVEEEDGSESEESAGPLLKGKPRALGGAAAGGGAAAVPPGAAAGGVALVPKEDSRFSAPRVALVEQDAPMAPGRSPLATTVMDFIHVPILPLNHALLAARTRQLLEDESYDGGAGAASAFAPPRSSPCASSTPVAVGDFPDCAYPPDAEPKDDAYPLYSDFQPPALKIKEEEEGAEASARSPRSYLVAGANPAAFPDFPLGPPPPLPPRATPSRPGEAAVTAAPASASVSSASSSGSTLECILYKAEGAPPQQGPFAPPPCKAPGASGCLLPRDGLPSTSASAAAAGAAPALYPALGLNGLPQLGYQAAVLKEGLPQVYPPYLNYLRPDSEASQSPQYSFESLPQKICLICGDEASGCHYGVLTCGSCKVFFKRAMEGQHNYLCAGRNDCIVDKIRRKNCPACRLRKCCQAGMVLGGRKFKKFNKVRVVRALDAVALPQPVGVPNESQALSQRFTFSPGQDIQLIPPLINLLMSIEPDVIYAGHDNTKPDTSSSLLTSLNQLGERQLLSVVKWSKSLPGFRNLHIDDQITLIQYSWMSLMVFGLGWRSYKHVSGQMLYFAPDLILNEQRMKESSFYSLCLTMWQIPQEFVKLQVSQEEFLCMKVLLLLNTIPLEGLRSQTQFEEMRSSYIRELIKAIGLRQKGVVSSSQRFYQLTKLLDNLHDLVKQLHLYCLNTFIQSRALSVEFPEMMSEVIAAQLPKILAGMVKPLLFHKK
In words: Antagonist activity at progesterone receptor in human HEK293T cells assessed as reduction in […] luciferase activity by dual-Glo luciferase assay. The class given is cell-based.

Data set [2] concerns the target T2, Androgen receptor (Homo sapiens) (UniProt P10275).
T2 sequence (whole entry): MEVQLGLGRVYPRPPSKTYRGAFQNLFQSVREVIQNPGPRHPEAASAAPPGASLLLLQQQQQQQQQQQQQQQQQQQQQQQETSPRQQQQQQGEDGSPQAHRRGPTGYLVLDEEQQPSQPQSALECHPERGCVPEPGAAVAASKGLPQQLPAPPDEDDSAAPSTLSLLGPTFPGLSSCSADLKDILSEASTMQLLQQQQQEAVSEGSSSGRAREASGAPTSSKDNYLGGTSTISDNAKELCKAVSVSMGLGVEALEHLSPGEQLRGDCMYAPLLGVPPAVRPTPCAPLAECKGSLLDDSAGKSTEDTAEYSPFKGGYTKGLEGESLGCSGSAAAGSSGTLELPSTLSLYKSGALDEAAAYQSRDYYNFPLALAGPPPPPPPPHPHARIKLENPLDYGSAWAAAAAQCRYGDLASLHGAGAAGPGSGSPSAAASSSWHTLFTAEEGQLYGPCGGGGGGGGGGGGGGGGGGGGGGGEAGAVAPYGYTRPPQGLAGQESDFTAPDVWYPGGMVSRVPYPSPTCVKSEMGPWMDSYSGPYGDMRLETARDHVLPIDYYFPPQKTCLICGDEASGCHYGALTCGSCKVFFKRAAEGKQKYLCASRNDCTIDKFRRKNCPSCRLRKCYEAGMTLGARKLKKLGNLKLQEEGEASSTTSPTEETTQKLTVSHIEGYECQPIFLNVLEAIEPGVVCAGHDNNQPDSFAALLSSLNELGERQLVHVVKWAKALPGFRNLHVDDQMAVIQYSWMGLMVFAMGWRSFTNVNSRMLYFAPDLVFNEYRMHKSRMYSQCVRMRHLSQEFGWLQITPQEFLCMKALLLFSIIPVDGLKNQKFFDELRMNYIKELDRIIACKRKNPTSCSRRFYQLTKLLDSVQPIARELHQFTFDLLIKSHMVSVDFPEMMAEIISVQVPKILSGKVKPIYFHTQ
In words: Antagonist activity at androgen receptor in human LNCaP cells assessed as reduction in DHT-induced endogenous PSA level at 0.1 to 10 uM after 48 hrs by Western blot analysis. The class given is cell-based. Conditions: filed as antagonist, dose 0.1-10 µM.

Data set [3] in a line: Cytotoxicity against human chang cells assessed as reduction in cell viability at 50 uM incubated for 72 hrs by MTT assay. The class given is cell-based. Conditions: chang liver.
A further data set has as its system NIH3T3. The experiment in a line: Cytotoxicity against mouse NIH3T3 cells assessed as reduction in cell viability incubated for 72 hrs by MTT assay. Conditions: nih3t3, 72 h. The class given is cell-based.
For data set [4], the target named is T2, Androgen receptor (Homo sapiens). The experiment in a line: Antagonist activity at androgen receptor in human LNCaP cells assessed as reduction in DHT-induced secreted PSA level. The data set is classed as cell-based. Conditions: filed as antagonist, dose 0.1-10 µM, time 48.0 hrs.
The target is the same in data set [5]. The experiment in a line: Antagonist activity at androgen receptor in human LNCaP cells assessed as inhibition of DHT-induced AR nuclear translocation at 10 uM after 12 hrs by immunofluorescence assay. The class given is cell-based. Conditions: filed as antagonist.
The next data set concerns A549. The experiment in a line: Cytotoxicity against human A549 cells assessed as reduction in cell viability at 50 uM incubated for 72 hrs by MTT assay. The class given is functional, cell-based.
Data set [6] relates to LNCaP. In words: Cytotoxicity against human LNCaP cells assessed as reduction in cell viability incubated for 72 hrs by MTT assay. The data set is classed as functional, cell-based.
The test system of the next data set is MCF7. In words: Cytotoxicity against human MCF7 cells assessed as reduction in cell viability at 50 uM incubated for 72 hrs by MTT assay. The data set is classed as functional, cell-based.
The subject of the next data set is LNCaP C4-2. In words: Cytotoxicity against human C4-2 cells assessed as reduction in cell viability incubated for 72 hrs by MTT assay. The class given is functional, cell-based.
Data set [7] deals with T1, Progesterone receptor (Homo sapiens). In words: Agonist activity at progesterone receptor in human HEK293T cells by dual-Glo luciferase assay. The class given is cell-based.
Another data set concerns HepG2. The experiment in a line: Cytotoxicity against human HepG2 cells assessed as reduction in cell viability at low concentration incubated for 72 hrs by MTT assay. The class given is functional, cell-based.
Data set [8] relates to LNCaP. The experiment in a line: Inhibition of colony formation in human LANCaP cells after 2 weeks by crystal violet staining based assay. The class given is functional, cell-based. Conditions: dose 2-20 µM.

With `O=c1cc(C(F)(F)F)c2ccc(OCc3ccc(Br)cc3)cc2o1`, the result (in [1]; in [7]; in the data set on HepG2) was inactive. Besides, the outcome (in [2]; in [5]; in the data set on A549; in the data set with LNCaP [6]; in the data set with MCF7; in the data set on LNCaP C4-2) was Active. The results for the Activity entry (in data set [3]; with NIH3T3; in [4]) were “Non-Toxic”, “Non-Toxic” and “Dose-dependent effect”, respectively. Also, the inhibition entry in the data set with LNCaP [8] was “Dose-dependent effect”.
